According to the supplement of paper PMC10307832:

Assays:
Assay in all cases: relative viability (nuclei count vs DMSO), 5 days (fraction); higher = more cells survive
[1] = test system: LCLC-103H
Summary of the method: (§1)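 Relative viability was taken as the ratio of nuclei in treated wells to nuclei in vehicle wells. Lung cancer cell lines in 1536-well plates received compounds by pin tool one day after seeding, either one drug alone or a fixed anchor-drug dose plus five library-drug doses (not always all listed) in √10 steps. Nuclei were counted on 4× images after 5 days of treatment, and values are medians of duplicate plates.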

[2] = test system: LK-2
Summary of the method: as §1

[3] = test system: NCI-H2126
Summary of the method: as §1

[4] = test system: NCI-H1666
Summary of the method: as §1

[5] = test system: HCC-827
Summary of the method: as §1

[6] = test system: NCI-H1355
Summary of the method: as §1

[7] = test system: NCI-H1944
Summary of the method: as §1

[8] = test system: LOU-NH91
Summary of the method: as §1

[9] = test system: NCI-H441
Summary of the method: as §1

[10] = test system: BEN
Summary of the method: as §1

[11] = test system: LXF-289
Summary of the method: as §1

[12] = test system: NCI-H1993
Summary of the method: as §1

[13] = test system: NCI-H661
Summary of the method: as §1

[14] = test system: NCI-H1437
Summary of the method: as §1

[15] = test system: NCI-H727
Summary of the method: as §1

[16] = test system: NCI-H647
Summary of the method: as §1

[17] = test system: SK-MES-1
Summary of the method: as §1

[18] = test system: NCI-H2170
Summary of the method: as §1

[19] = test system: HOP-62
Summary of the method: as §1

[20] = test system: ChaGo-K-1
Summary of the method: as §1

[21] = test system: EKVX
Summary of the method: as §1

[22] = test system: RERF-LC-KJ
Summary of the method: as §1

[23] = test system: PC-14
Summary of the method: as §1

`Cc1csc(=NC2CCCCC2)n1/N=C/c1ccc(O)c(O)c1O` [MIM1] + CS(=O)(=O)N1CCN(Cc2cc3nc(-c4cccc5[nH]ncc45)nc(N4CCOCC4)c3s2)CC1 [Pictilisib] (partner 1 µM) was tested, and the relative viability ([1]; first compound 0.2 µM) was 0.721, the relative viability ([1]; first compound 0.6325 µM) was 0.574 and the relative viability ([1]; first compound 2 µM) was 0.608. The relative viability ([1]; first compound 6.325 µM) was 0.631, the relative viability ([1]; first compound 20 µM) was 0.59 and the relative viability ([2]; first compound 0.2 µM) was 0.581. For the same molecule, the relative viability ([2]; first compound 0.6325 µM) was 0.534, the relative viability ([2]; first compound 6.325 µM) was 0.561 and the relative viability ([2]; first compound 20 µM) was 0.269. For the same molecule, the relative viability ([3]; first compound 0.2 µM) was 0.516, the relative viability ([3]; first compound 0.6325 µM) was 0.481 and the relative viability ([3]; first compound 2 µM) was 0.482. For the same molecule, the relative viability ([3]; first compound 6.325 µM) was 0.467, the relative viability ([3]; first compound 20 µM) was 0.344 and the relative viability ([4]; first compound 0.2 µM) was 0.605. For the same molecule, the relative viability ([4]; first compound 0.6325 µM) was 0.398, the relative viability ([4]; first compound 2 µM) was 0.476 and the relative viability ([4]; first compound 6.325 µM) was 0.422. It also gave a relative viability ([4]; first compound 20 µM) of 0.311, a relative viability ([5]; first compound 0.2 µM) of 0.985 and a relative viability ([5]; first compound 0.6325 µM) of 0.936. It also gave a relative viability ([5]; first compound 2 µM) of 0.947, a relative viability ([5]; first compound 6.325 µM) of 0.618 and a relative viability ([5]; first compound 20 µM) of 0.664. It also gave a relative viability ([6]; first compound 0.2 µM) of 0.402, a relative viability ([6]; first compound 0.6325 µM) of 0.392 and a relative viability ([6]; first compound 2 µM) of 0.435. The relative viability ([6]; first compound 6.325 µM) was 0.376, the relative viability ([6]; first compound 20 µM) was 0.234 and the relative viability ([7]; first compound 0.2 µM) was 0.394. For the same molecule, the relative viability ([7]; first compound 0.6325 µM) was 0.335, the relative viability ([7]; first compound 2 µM) was 0.296 and the relative viability ([7]; first compound 6.325 µM) was 0.34. It also gave a relative viability ([7]; first compound 20 µM) of 0.384, a relative viability ([8]; first compound 0.2 µM) of 0.534 and a relative viability ([8]; first compound 0.6325 µM) of 0.524. The relative viability ([8]; first compound 2 µM) was 0.47, the relative viability ([8]; first compound 6.325 µM) was 0.506 and the relative viability ([8]; first compound 20 µM) was 0.382. For the same molecule, the relative viability ([9]; first compound 0.2 µM) was 0.541, the relative viability ([9]; first compound 0.6325 µM) was 0.468 and the relative viability ([9]; first compound 2 µM) was 0.539. The relative viability ([9]; first compound 6.325 µM) was 0.382, the relative viability ([9]; first compound 20 µM) was 0.147 and the relative viability ([10]; first compound 0.2 µM) was 0.607. The relative viability ([10]; first compound 0.6325 µM) was 0.594, the relative viability ([10]; first compound 2 µM) was 0.604 and the relative viability ([10]; first compound 6.325 µM) was 0.531. It also gave a relative viability ([10]; first compound 20 µM) of 0.279, a relative viability ([11]; first compound 0.2 µM) of 0.757 and a relative viability ([11]; first compound 0.6325 µM) of 0.689. It also gave a relative viability ([11]; first compound 2 µM) of 0.823, a relative viability ([11]; first compound 6.325 µM) of 0.676 and a relative viability ([11]; first compound 20 µM) of 0.522. It also gave a relative viability ([12]; first compound 0.2 µM) of 0.829, a relative viability ([12]; first compound 0.6325 µM) of 0.92 and a relative viability ([12]; first compound 2 µM) of 0.827. The relative viability ([12]; first compound 6.325 µM) was 0.776, the relative viability ([12]; first compound 20 µM) was 0.764 and the relative viability ([13]; first compound 0.2 µM) was 0.388. For the same molecule, the relative viability ([13]; first compound 0.6325 µM) was 0.367, the relative viability ([13]; first compound 2 µM) was 0.357 and the relative viability ([13]; first compound 6.325 µM) was 0.38. The relative viability ([13]; first compound 20 µM) was 0.345, the relative viability ([14]; first compound 0.2 µM) was 0.482 and the relative viability ([14]; first compound 0.6325 µM) was 0.382. It also gave a relative viability ([14]; first compound 2 µM) of 0.516, a relative viability ([14]; first compound 6.325 µM) of 0.269 and a relative viability ([14]; first compound 20 µM) of 0.128. For the same molecule, the relative viability ([15]; first compound 0.2 µM) was 0.415, the relative viability ([15]; first compound 0.6325 µM) was 0.352 and the relative viability ([15]; first compound 2 µM) was 0.35. For the same molecule, the relative viability ([15]; first compound 6.325 µM) was 0.355, the relative viability ([15]; first compound 20 µM) was 0.122 and the relative viability ([16]; first compound 0.2 µM) was 0.379. For the same molecule, the relative viability ([16]; first compound 0.6325 µM) was 0.578, the relative viability ([16]; first compound 6.325 µM) was 0.42 and the relative viability ([16]; first compound 20 µM) was 0.191. For the same molecule, the relative viability ([17]; first compound 0.2 µM) was 0.358, the relative viability ([17]; first compound 0.6325 µM) was 0.346 and the relative viability ([17]; first compound 2 µM) was 0.388. The relative viability ([17]; first compound 6.325 µM) was 0.283, the relative viability ([17]; first compound 20 µM) was 0.252 and the relative viability ([18]; first compound 0.2 µM) was 0.394. The relative viability ([18]; first compound 0.6325 µM) was 0.28, the relative viability ([18]; first compound 2 µM) was 0.321 and the relative viability ([18]; first compound 6.325 µM) was 0.272. The relative viability ([18]; first compound 20 µM) was 0.238, the relative viability ([19]; first compound 0.2 µM) was 0.803 and the relative viability ([19]; first compound 0.6325 µM) was 0.437. The relative viability ([19]; first compound 2 µM) was 0.724, the relative viability ([19]; first compound 6.325 µM) was 0.642 and the relative viability ([19]; first compound 20 µM) was 0.127. It also gave a relative viability ([20]; first compound 0.2 µM) of 0.876, a relative viability ([20]; first compound 0.6325 µM) of 0.629 and a relative viability ([20]; first compound 2 µM) of 0.863. For the same molecule, the relative viability ([20]; first compound 6.325 µM) was 0.644, the relative viability ([20]; first compound 20 µM) was 0.265 and the relative viability ([21]; first compound 0.2 µM) was 0.477. The relative viability ([21]; first compound 0.6325 µM) was 0.365, the relative viability ([21]; first compound 2 µM) was 0.463 and the relative viability ([21]; first compound 6.325 µM) was 0.322. For the same molecule, the relative viability ([21]; first compound 20 µM) was 0.351, the relative viability ([22]; first compound 0.2 µM) was 0.504 and the relative viability ([22]; first compound 0.6325 µM) was 0.488. The relative viability ([22]; first compound 2 µM) was 0.484, the relative viability ([22]; first compound 6.325 µM) was 0.415 and the relative viability ([22]; first compound 20 µM) was 0.225. It also gave a relative viability ([23]; first compound 0.2 µM) of 0.629, a relative viability ([23]; first compound 0.6325 µM) of 0.709 and a relative viability ([23]; first compound 2 µM) of 0.628. It also gave a relative viability ([23]; first compound 6.325 µM) of 0.55 and a relative viability ([23]; first compound 20 µM) of 0.488.
